In patent publication US20230028658A1, “EXPANDED DOSAGE REGIMENS FOR INTEGRIN INHIBITORS” (Pliant Therapeutics, Inc., priority 2021, published 2023):
Like-named read-outs stand apart in the source and are kept apart here.

Experiments:
[1] = tested on: lung Col1a1 expression; assay: Precision cut lung slices, chronic bleomycin, comparison with nintedanib and pirfenidone (Example B10); format: cell-based, Mice (C57BL/6); conditions: chronic bleomycin PCLS, 7 days culture, vs DMSO vehicle; FIG. 6A
Protocol: Mice (C57BL/6) were administered 3 U/kg of bleomycin (Teva Pharmaceuticals; North Wales, Pa.) on Day 0 and 1 U/kg of bleomycin on days 14, 28, 42 and 56 via oropharyngeal aspiration while under anesthesia. At day 70, 14 days following the final bleomycin insult, precision cut lung slices were obtained. Following euthanization, 2% low gelling temp agarose was injected into the mouse lungs via the trachea. […] The lobes were then subjected to precision slicing to obtain samples for culture using a microtome (Compresstome VF-300-0Z, Precisionary; Greenville, N.C.). Individual slices were distributed in a multiwell culture plate and cultured for 7 days under control (DMSO) and test compound conditions. The viability of the slices over the course of culturing was confirmed by WST-1 assay of mitochondrial activity.
During the culture period, slices in the control group were treated with DMSO and slices in the test group were treated with a DMSO solution of one of: compound 5; nintedanib; pirfenidone; a combination of nintedanib and compound 5; a combination of pirfenidone and compound 5; or the small molecule ALK5 inhibitor. Compound 5 was […] effective to equal or exceed its respective IC50 values at αvβ6 and αvβ1. […] Nintendanib and pirfenidone were analyzed at concentrations 10× their reported therapeutic concentrations.

[2] = Multiple dose pharmacokinetics (MAD), Example B14; format: in vivo; conditions: human, plasma, oral; for AUC(0-t): read-out: AUC0−24, ng × h/mL; for Tmax: median
Text: Accordingly, a study was designed to assess the PK of Compound 5 after a single dose and following a 6-day course of doses, at levels exceeding the dosages used in preceding Examples B12 and B13. This study was designed to assess at these higher doses aspects of the single-dose and steady-state pharmacokinetics of Compound 5.
This study was a single-center, randomized, double-blind, ascending dose, placebo-controlled study in healthy participants. Each cohort included 10 participants (8 active, 2 placebo). Study participants received single ascending doses (SAD) of Compound 5 of 120, 160, 240, 320, 480, and 640 mg and multiple ascending doses (MAD) of Compound 5 of 80, 120, 160, 240, and 320 mg. Two cohorts of participants at 160 mg were studied in the MAD phase of the study.
Participants received 7 daily doses of Compound 5 80, 120, 160, 240, and 320 mg. A total of 60 participants were enrolled across the dosing groups, with 48 participants who received Compound 5 available for PK analyses. One participant discontinued study drug prior to completing all study procedures. […] Despite the substantially higher dosages, the PK parameters in the dosing groups were consistent with those observed at lower doses in Example B12. Following multiple doses of Compound 5 (oral solution) ranging from 80 to 320 mg QD, median plasma Compound 5 concentrations reached maximum levels after 3 to 4 hours. Geometric mean T1/2 remained relatively unchanged with increasing dose, ranging from 36 to 55 hours.

[3] = tested on: pSMAD2/SMAD2; assay: pSMAD2/SMAD2 in BALF cells of healthy participants, Example B15 Part 1; format: in vivo, human; conditions: preliminary analysis
Text: The primary objective of this study was to assess the pharmacodynamic changes in biomarkers of TGF-β activation in alveolar macrophages from bronchoalveolar lavage fluid (BALF) following dosing of Compound 5 for 7 days. Secondary objectives of this study were to assess the safety and tolerability of Compound 5 following dosing for 7 days, the plasma PK of Compound 5, and the PK/PD (BALF biomarkers) relationship.
This study was designed as a randomized, double-blind, placebo-controlled study in 48 healthy participants conducted in 2 parts. Part 1 has completed clinical conduct, and Part 2 is ongoing. In Part 1, 24 participants were randomized 1:1:1 to receive Compound 5 80 mg QD, Compound 5 160 mg QD, or placebo QD. A safety review committee reviewed the safety and PK data from Part 1 and recommended doses for Part 2. In Part 2, 24 participants were randomized 1:1:1 to receive Compound 5 320 mg QD (Compound 5 in the morning and matched placebo in the afternoon), Compound 5 160 mg twice daily (BID), or placebo BID. In both parts, samples of BALF were collected from the middle lobe or lingula via bronchoscopy prior to dosing (Day −1) and at 6 and 24 hours post morning dose on Day 7. BALF samples were assessed for TGF-β receptor kinase activity (pSMAD2/SMAD2) in pelleted cells (primarily alveolar macrophages) and additional cell material was used to measure TGF-β signaling pathway-related gene expression levels. Plasma samples were collected to measure Compound 5 concentrations and determine protein binding. Safety was monitored via open-ended AE inquiry and clinical chemistry, hematology, vital sign, and 12-lead ECG parameters.

[4] = target: αvβ6 (Homo sapiens, UniProt P06756+P18564); assay: IC50 of αvβ6 adjusted for protein binding
Chain of αvβ6 (P06756 31-1048): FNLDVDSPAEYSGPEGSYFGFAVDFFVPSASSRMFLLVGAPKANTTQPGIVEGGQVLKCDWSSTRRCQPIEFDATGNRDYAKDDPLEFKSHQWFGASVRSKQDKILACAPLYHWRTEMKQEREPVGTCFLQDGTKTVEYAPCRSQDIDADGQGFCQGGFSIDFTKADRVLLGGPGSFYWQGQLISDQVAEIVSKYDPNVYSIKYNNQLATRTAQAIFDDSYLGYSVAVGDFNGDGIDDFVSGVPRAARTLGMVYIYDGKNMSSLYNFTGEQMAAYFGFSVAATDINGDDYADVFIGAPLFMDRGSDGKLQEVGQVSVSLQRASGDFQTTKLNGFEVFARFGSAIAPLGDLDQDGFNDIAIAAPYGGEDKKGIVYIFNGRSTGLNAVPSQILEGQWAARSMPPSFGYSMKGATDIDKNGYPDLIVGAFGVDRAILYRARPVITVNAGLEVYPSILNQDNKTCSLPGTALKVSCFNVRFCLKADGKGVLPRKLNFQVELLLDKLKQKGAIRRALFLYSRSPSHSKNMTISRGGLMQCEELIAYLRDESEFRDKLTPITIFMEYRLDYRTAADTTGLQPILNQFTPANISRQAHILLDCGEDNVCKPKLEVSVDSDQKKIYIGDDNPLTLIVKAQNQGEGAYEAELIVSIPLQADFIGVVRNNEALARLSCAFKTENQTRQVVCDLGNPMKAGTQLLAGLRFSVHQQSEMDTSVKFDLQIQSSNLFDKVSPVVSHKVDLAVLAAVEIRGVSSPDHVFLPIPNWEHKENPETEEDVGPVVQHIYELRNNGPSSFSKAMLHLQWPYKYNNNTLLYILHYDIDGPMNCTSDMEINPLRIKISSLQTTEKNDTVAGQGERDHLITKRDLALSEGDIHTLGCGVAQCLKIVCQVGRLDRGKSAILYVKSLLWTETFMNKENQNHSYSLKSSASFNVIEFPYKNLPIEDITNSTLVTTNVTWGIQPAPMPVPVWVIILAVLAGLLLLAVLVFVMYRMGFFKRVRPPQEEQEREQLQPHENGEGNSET
Chain of αvβ6 (P18564 22-788): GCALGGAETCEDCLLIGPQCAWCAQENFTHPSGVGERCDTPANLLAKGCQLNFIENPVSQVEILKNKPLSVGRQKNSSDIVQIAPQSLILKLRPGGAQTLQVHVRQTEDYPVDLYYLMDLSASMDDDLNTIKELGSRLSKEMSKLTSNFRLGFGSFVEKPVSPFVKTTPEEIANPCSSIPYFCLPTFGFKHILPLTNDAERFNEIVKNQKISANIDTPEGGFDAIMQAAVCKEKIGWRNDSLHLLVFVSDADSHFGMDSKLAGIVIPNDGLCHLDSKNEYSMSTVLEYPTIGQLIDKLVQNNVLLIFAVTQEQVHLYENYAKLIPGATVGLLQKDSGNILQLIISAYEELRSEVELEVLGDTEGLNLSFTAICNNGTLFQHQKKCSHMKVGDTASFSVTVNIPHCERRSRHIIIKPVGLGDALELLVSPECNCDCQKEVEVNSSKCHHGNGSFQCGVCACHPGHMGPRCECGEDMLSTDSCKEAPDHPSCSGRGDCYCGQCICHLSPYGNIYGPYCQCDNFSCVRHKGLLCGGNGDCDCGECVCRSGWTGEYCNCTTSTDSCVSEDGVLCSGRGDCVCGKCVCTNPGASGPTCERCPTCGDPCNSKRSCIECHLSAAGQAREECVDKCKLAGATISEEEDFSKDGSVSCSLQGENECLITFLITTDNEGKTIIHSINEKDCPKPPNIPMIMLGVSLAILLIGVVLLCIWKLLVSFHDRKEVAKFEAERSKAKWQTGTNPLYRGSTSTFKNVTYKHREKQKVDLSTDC

[5] = 80 mg daily, Day 7, geometric mean
[6] = 120 mg daily, Day 7, geometric mean
[7] = 160 mg daily, Day 7, two cohorts pooled, geometric mean
[8] = 240 mg daily, Day 7, geometric mean
[9] = 320 mg daily, Day 7, geometric mean

## COCCN(CCCCc1ccc2c(n1)NCCC2)CC[C@H](Nc1ncnc2ccccc12)C(=O)O [Compound 5, (S)-4-((2-methoxyethyl) (4-(5,6,7,8-tetrahydro-1,8-naphthyridin-2-yl)butyl)amino)-2-(quinazolin-4-ylamino) butanoic acid]
[1]
  lung slice Col1a1 expression: substantial, statistically significant (p<0.01 vs vehicle) decrease
[2]; [5]
  Cmax: 1850 ng/mL
  AUC(0-t): 19200 ng·h/mL
[2]; 80 mg daily, Day 7, geometric mean, read-out: T1/2 (converted)
  half-life: 36.1 h
[2]; 80 mg daily, Day 7
  Tmax: 3.5 h
[2]; [6]
  Cmax: 4040 ng/mL
  AUC(0-t): 49400 ng·h/mL
[2]; 120 mg daily, Day 7, geometric mean, read-out: T1/2 (converted)
  half-life: 55.4 h
[2]; 120 mg daily, Day 7
  Tmax: 4.03 h
[2]; [7]
  Cmax: 3790 ng/mL
  AUC(0-t): 49400 ng·h/mL
[2]; 160 mg daily, Day 7, two cohorts pooled, geometric mean, read-out: T1/2 (converted)
  half-life: 41.7 h
[2]; 160 mg daily, Day 7, two cohorts pooled
  Tmax: 3 h
[2]; [8]
  Cmax: 5140 ng/mL
  AUC(0-t): 63000 ng·h/mL
[2]; 240 mg daily, Day 7, geometric mean, read-out: T1/2 (converted)
  half-life: 50.5 h
[2]; 240 mg daily, Day 7
  Tmax: 3 h
[2]; [9]
  Cmax: 5730 ng/mL
  AUC(0-t): 74500 ng·h/mL
[2]; 320 mg daily, Day 7, geometric mean, read-out: T1/2 (converted)
  half-life: 46 h
[2]; 320 mg daily, Day 7
  Tmax: 3.56 h
[2]; multiple doses 80 to 320 mg QD, read-out: Geometric mean T1/2
  half-life: 36 to 55 h
[3]; 80 mg QD 7 days, 6 hours post dose Day 7
  reduction in pSMAD2 levels (pSMAD2/SMAD2 ratio): 41.2%
[3]; 80 mg QD 7 days, 24 hours post dose Day 7
  reduction in pSMAD2 levels (pSMAD2/SMAD2 ratio): 36.6%
[3]; 160 mg QD 7 days, 6 hours post dose Day 7
  reduction in pSMAD2 levels (pSMAD2/SMAD2 ratio): 57.8%
[3]; 160 mg QD 7 days, 24 hours post dose Day 7
  reduction in pSMAD2 levels (pSMAD2/SMAD2 ratio): 53.2%
[4]
  IC50: 10 nM
